Assay results as given in ChEMBL document CHEMBL1126813, “Phenyl-substituted prostaglandins: potent and selective antiglaucoma agents” (J Med Chem, 1993).

Key:
Monkey = assay: Maximum reduction of the intraocular pressure in normotensive monkeys after topical administration of 3 ug of the compound; assay type: functional, Cercopithecidae, Eye
Felis catus [1] = assay: Maximum irritation of cat eyes after topical administration of 5 ug of the compound; assay type: functional
Felis catus [2] = assay: Maximum irritation of cat eyes after topical administration of 3 ug of the compound; assay type: functional
Felis catus [3] = species on record: Felis catus; assay: Compound concentration which had a contractile effect on iris sphincter muscle of cats; assay type: functional

Row | Structure (SMILES) | Reduction of IOP (Monkey) [mmHg] | Irritation of eyes (Felis catus [1]) [arbitrary units] | Irritation of eyes (Felis catus [2]) [arbitrary units] | EC50 (Felis catus [3]) [nM]
1 | CC(C)OC(=O)CCC/C=C\C[C@@H]1[C@@H](/C=C/[C@H](O)CCc2ccccc2)[C@H](O)C[C@@H]1O | 1.9 | 0 |  | 
2 | CCCCC[C@@H](O)CC[C@@H]1[C@@H](C/C=C\CCCC(=O)OC(C)C)[C@@H](O)C[C@H]1O | 0.7 |  | 2.3 | 
3 | CCCCC[C@H](O)CC[C@@H]1[C@@H](C/C=C\CCCC(=O)OC(C)C)[C@@H](O)C[C@H]1O | 2.5 |  | 2.5 | 
4 | O=C(O)CCC/C=C\C[C@@H]1[C@@H](CC[C@@H](O)CCc2ccccc2)[C@H](O)C[C@@H]1O [LATANOPROST ACID] |  |  |  | 0.71
5 | CC(C)OC(=O)CCC/C=C\C[C@@H]1[C@@H](/C=C/[C@@H](O)CCc2ccccc2)[C@H](O)C[C@@H]1O | 2.9 | 0.2 |  | 
6 | CC(C)OC(=O)CCC/C=C\C[C@@H]1[C@@H](CC[C@@H](O)CCc2ccccc2)[C@H](O)C[C@@H]1O [LATANOPROST] | 2.6 |  | 0 | 
7 | CC(C)OC(=O)CCC/C=C\C[C@@H]1[C@@H](CC[C@H](O)CCc2ccccc2)[C@H](O)C[C@@H]1O | 1 |  | 0 | 
